Source: US20060160869A1, “Ubiquitin ligase inhibitors” (Rigel Pharmaceuticals, Inc., priority 2005, published 2006)
Read-outs that look alike come from different tables or passages of the source.

Assays:
[1] = target: E3 (His-APC11/APC2, "APC") (Homo sapiens, UniProt Q9NYG5+Q9UJX6); assay: Plate-based E3 ligase assay (APC FLAG), auto-ubiquitination; assay type: biochemical
Experimental: E3 (His-APC11/APC2—“APC”) auto-ubiquitination was measured as described in U.S. patent application Ser. No. 09/826,312 (Publication No. US-2002-0042083-A1), which is incorporated herein in its entirety. Details of the protocol are described below. Activity in the presence of the compound was determined relative to a parallel control in which only DMSO was added. Values of the IC50 were typically determined using 6 or 8 different concentrations of the compound, although as few as 2 concentrations may be used to approximate the IC50 value.
Nickel-coated 96-well plates (Pierce 15242) were blocked for 1 hour with 100 μl of blocking buffer at room temperature. The plates were washed 4 times with 225 μl of 1×PBS and 80 μl of the reaction buffer were added that contained 100 ng/well of Flag-ubiquitin. To this, 10 μl of the test compound diluted in DMSO were added. After the test compound was added, 10 μl of E1 (human), E2 (Ubch5c), and APC in Protein Buffer was added to obtain a final concentration of 5 ng/well of E1, 20 ng/well: of E2 and 100 ng/well of APC. The plate were shaken for 10 minutes and incubated at room temperature for 1 hour. After incubation, the plates were washed 4 times with 225 μl of 1×PBS and 100 μl/well of Antibody Mix were added to each well. The plates were incubate at room temperature for another hour after which they were washed 4 times with 225 μl of 1×PBS and 100 μl/well of Lumino substrate were added to each well. The luminescence was measured by using a BMG luminescence microplate reader.
APC Plate/gel is Anaphase Promoting Complex. This protein also belongs to E3 RING finger ligase group.

[2] = system: p53 reporter system in p53 wild-type U2OS cell line; assay: p53-dependent transcription reporter assay, U20SRE; assay type: cell-based; conditions: p53 +ve cell type; maximal fold induction over DMSO control
Text: (§1) Stable lines of U2OS (osteosarcoma; Wild-type p53 positive), HCT116 (colorectal carcinoma; Wild-type p53 positive) and H1299 (lung non-small cell carcinoma; p53 null) carrying p53-dependent transcriptional regulatory element linked to a Luciferase reporter gene and H1299 carrying a 5′-regulatory region of GADD45 linked to Luciferase were used.
Day 1: Cells were re-plated into 96-well plates at suitable densities to make 50-60% confluence on Day 2. The plating densities are as follows: 7.5×10^3 cells/well (or 2.5×10^4 cells/cm^2) for U2OS; 1.5×10^4 cells/well (or 5.0×10^4 cells/cm^2) for HCT116; and 1.0×10^4 cells/well (or 3.3×10^4 cells/cm^2) for H1299.
(§2) Day 2: The compounds or control drugs were diluted in dimethyl sulfoxide (DMSO) and added to the wells to create 6-points/2-fold serial dilution (20, 10, 5, 2.5, 1.25, 0.625 and 0 μM) for each compound. The DMSO concentration was adjusted to 0.2% in all wells.
(§3) Day 3: Twenty to 24 hours after compound addition, cells were twice washed with PBS and lysed with Glo-lysis buffer (100 μl/well, Promega; Cat#E2661). Plates were subjected to gentle agitation on a table-top shaker for 5 minutes at room temperature. Fifty μl of lysate was transferred to an assay plate to test for luciferase activity and mixed with 2× assay buffer (Promega; Cat# E1483). The reaction mixture was left at room temperature for 2 minutes and then luminescence was measure by a luminometer (Victor™, 1420 Multilabel Counter, Wallac).
(§4) Data analysis was done on Excel software (Microsoft). Values in Table 4 represent maximal fold induction over negative control (DMSO only) and are the mean of at least duplicate experiments.
U20SRE is a p53 wild-type U2OS cell line containing p53 reporter system. If the compound acts against MDM2, p53 activity increases.

[3] = system: p53 reporter system in p53 wild-type A549 cell line; assay: p53-dependent transcription reporter assay, A549RE; assay type: cell-based; conditions: p53 +ve cell type; maximal fold induction over DMSO control
Experimental: as §1, §2, §3, §4
A549RE is a p53 wild-type A549 cell line containing p53 reporter system. If the compound acts against MDM2, p53 activity increases.

U2OS cells = assay: PAD anti-proliferation assay, U2OS; assay type: cell-based; conditions: Homo sapiens, 48 hours, read-out: PAD/U20S IC50
Experimental: A549 (ATCC# CCL 185), HeLa (ATCC# CCL 2), HCT116 (ATCC# CCL-247), and H 1299 (ATCC# CRL-5803) cells were maintained in T175 flasks following the ATCC recommended media and handling procedures. Flasks reaching approximately 70% confluency were trypsinized and resuspended in RPMI media (Cell Gro catalog number 10 040 CM) modified to contain 5% FBS, 100 ug/mlPen/Strep (Cell Gro catalog number 30 002 CL), and 0.3 mg/ml L Glutamine (Cell Gro catalog number 25 003 CL). A 20,000 cells/ml solution was made for plating. Cells were plated in black Packard 96 well plates by placing 100 μl per well (2,000 cells per well).
Compounds and additional media were added 24′ hours after cell plating. A compound master plate was created with concentrations 500 times greater than the final concentration added to the cells. All compound testing was done in duplicate using 3 fold dilutions starting with 10 mM. All outside wells (and 4 internal wells) were DMSO controls. Taxol and at least one additional control were run on all plates. Three microliters of the compound master plate were added to deep well blocks containing 750 μl of RPMI media. One hundred microliters were transferred from the compound/media deep well blocks to the plated cells resulting in a 500 fold dilution of the compounds. Cells were grown at 37° C., 5% CO2 for 48 hours.
Cells to be analyzed by photography were fixed and stained. One hundred microliters of media were removed and 100 μl of 2% paraformaldehyde was added to each well. Plates were left on the benchtop for 45 minutes. A staining solution containing 1.55 μl of 1 mg/ml DAPI added to 18.75 ml PBS was warmed for 15 minutes at 37° C. The cells were aspirated prior to washing with 100 μl of PBS. Seventy microliters of PBS were aspirated and 170 μl of the DAPI solution were added to each well of fixed cells. Plates were left at room temperature for one hour then aspirated and washed twice with 100 μl of PBS. The stained cells were left at 4° C. for a minimum of 16 hours before photographic analysis with Array Scan II (Cellomics). Analysis of the photographic images to determine numbers of live cells (proliferation), apoptotic cells and dead cells, were according to the methods described in U.S. Provisional Patent Application Ser. No. 60/406,714, which incorporated herein in its entirety.
Some cell plates were treated with Promega Cell titer Aqueous 1 kit (Promega—VWR catalog number G3580). In this case, 48 hours after the test compound were added, 100 μl of media were removed and 20 μl of cell titer reagent were added to all wells. Plates were incubated at 37° C. for 45 minutes prior to absorbance reads on the Wallac plate reader at 490 nm for 0.1 sec/well. Similar experiments can be carried out using cell lines U2OS and DLD-1.

[4] = Table 3, read-out: APC Plate IC50

E3 (His-APC11/APC2, "APC"), sequence (Q9NYG5 whole entry): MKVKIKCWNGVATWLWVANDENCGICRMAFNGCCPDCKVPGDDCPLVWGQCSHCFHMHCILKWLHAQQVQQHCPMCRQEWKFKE
E3 (His-APC11/APC2, "APC"), sequence (Q9UJX6 whole entry): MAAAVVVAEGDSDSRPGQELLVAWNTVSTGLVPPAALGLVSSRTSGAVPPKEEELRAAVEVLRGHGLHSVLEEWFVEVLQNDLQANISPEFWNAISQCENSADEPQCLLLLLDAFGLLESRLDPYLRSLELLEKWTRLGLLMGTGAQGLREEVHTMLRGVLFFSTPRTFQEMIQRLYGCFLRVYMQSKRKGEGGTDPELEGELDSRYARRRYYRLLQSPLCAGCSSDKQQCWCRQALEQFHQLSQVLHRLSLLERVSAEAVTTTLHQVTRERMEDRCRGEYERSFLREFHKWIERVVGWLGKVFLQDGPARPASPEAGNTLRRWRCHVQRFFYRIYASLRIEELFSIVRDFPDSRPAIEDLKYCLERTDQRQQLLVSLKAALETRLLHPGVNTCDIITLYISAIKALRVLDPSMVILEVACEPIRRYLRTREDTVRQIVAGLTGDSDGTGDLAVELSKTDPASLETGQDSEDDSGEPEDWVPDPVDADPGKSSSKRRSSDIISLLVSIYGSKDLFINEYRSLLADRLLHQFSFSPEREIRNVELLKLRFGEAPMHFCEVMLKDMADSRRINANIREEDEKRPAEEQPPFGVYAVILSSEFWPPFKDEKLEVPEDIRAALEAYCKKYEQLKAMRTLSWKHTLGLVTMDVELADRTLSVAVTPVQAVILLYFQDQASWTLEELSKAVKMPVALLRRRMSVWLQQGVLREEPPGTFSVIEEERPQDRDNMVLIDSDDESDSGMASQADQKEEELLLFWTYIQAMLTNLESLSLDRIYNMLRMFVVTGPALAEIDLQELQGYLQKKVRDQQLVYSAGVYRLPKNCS

Row | SMILES | IC50 ([1]; Table 2, read-out: APC IC50) [µM] | IC50 [1, 4] [µM] | Fold Induction of p53 activity, U20SRE [2] | Fold Induction of p53 activity, A549RE [3] | IC50 (U2OS cells) [µM]
1 | O=C(c1ccc(CN(Cc2cccc(OC(F)(F)F)c2)c2nc(-c3ccccc3)cs2)cc1)N1CCNCC1 [compound 275] | 1 to 20 | 1 to 20 | b (b means greater than 2) | a (a means 2 or less) | 1 to 20
2 | O=C(c1ccc(CN(Cc2cccc(OC(F)(F)F)c2)c2nc(-c3ccc4ccccc4c3)cs2)cc1)N1CCNCC1 [compound 282, 4-(2-naphthyl)-N-[4-(piperazin-1-ylcarbonyl)benzyl]-N-[3-(trifluoromethoxy)benzyl]-1,3-thiazol-2-amine] | 1 to 20 | 1 to 20 | b (b means greater than 2) | a (a means 2 or less) | 1 to 20
3 | COc1cccc(-c2csc(N(Cc3ccc(C(=O)N4CCNCC4)cc3)Cc3cccc(OC(F)(F)F)c3)n2)c1 [compound 351] | 1 to 20 | 1 to 20 | b (b means greater than 2) | a (a means 2 or less) | 1 to 20
4 | COc1cccc(-c2csc(N(CCOc3ccccc3)Cc3ccc(C(=O)N4CCNCC4)cc3)n2)c1 [compound 352] | 1 to 20 | ≥ 20 | b (b means greater than 2) | a (a means 2 or less) | 1 to 20
5 | COc1cccc(CN(Cc2ccc(C(=O)N3CCNCC3)cc2)c2nc(-c3ccc(Br)cc3)cs2)c1OC [compound 353] | 1 to 20 | 1 to 20 | a (a means 2 or less) | a (a means 2 or less) | 1 to 20
6 | O=C(c1ccc(CN(CCOc2ccccc2)c2nc(-c3ccc(Cl)c(Cl)c3)cs2)cc1)N1CCNCC1 [compound 360] | 1 to 20 | 1 to 20 | b (b means greater than 2) | a (a means 2 or less) | 1 to 20
